Structures are written as SMILES.

This is an account of results in patent publication US20070054887A1, “Methods for treating bladder dysfunction” (BioXell S.p.A, priority 2003, published 2007).

The subject of assay [1] is rats with CYP-induced cystitis. Put plainly: cyclophosphamide (CYP) induced chronic cystitis in rats: conscious cystometry. The conditions noted are these: 30 and 75 ug/kg, control v Comp A. It is filed as in vivo, Wistar rats.
For the next assay, the system named is bladder strips. The assay can be described thus: contractile properties of isolated bladder strips from BOO model rats. Also on record: species or system Sprague-Dawley rats. Conditions: in vitro test. On the procedure:
After completion of the cystometries, the rats were sacrified by carbon monoxide asphyxiation followed by exsanguination. The abdomen was accessed through a lower midline incision whereafter the symphysis was opened. The bladder was carefully dissected free, and immediately placed in chilled Krebs solution, and strip preparations were dissected.
The bladder and urethra were separated at the level of the bladder neck, and semicircular strips were prepared from the middle third of the detrusor (1×2×5 mm). All preparations were used immediately after removal.
The strips were transferred to 5 ml tissue baths containing Krebs solution. The Krebs solution was maintained at 37° C. and bubbled continuously with a mixture of 95% O2 and 5% CO2, resulting in a pH of 7.4. The strips were suspended between two L-shaped hooks by means of silk ligatures. One hook was connected to a movable unit allowing adjustment of passive tension, and the other to a Grass FT03C (Grass Instruments Co, MA, USA) force transducer. Isometric tension was recorded using a Grass polygraph (7D). After mounting, the strips were stretched to a passive tension of 4 mN (the same tension for all preparations) and allowed to equilibrate for 45-60 min before further experiments were performed.
Electrical field stimulation (EFS) was accomplished by means of two platinum electrodes placed on either side of the preparations, and was performed using a Grass S48 or S88 stimulator, delivering single square wave pulses at selected frequencies. The train duration was 5 s, the pulse duration 0.8 ms, and the stimulation interval 2 min. The polarity of the electrodes was shifted after each pulse by means of a polarity changing unit.
Each experiment was started by exposing the preparations to a high K^+ (124 mM) Krebs solution until two reproducible contractions are obtained. Then the following experiments were carried out:
a) Electrical stimulation of nerves was performed and frequency-response relations obtained, in the presence and absence of atropine.
b) Concentration-response curves were constructed for carbachol and ATP […]

In a further assay the test system is BOO rats. Put plainly: bladder outlet obstruction (BOO) rat model: cystometry and bladder weight. Type of assay: in vivo, Sprague-Dawley rats. The conditions noted are these: 150 ug/kg/daily over 2 weeks. Here is the method:
Female Sprague-Dawley rats, weighing 200-250 g
Group A: BOO rats, treated with the vitamin D analogue over 2 weeks, beginning at day 1 after creation of the obstruction (n=12)
Group B: BOO rats, treated with vehicle over 2 weeks, beginning at day 1 after creation of the obstruction (n=12)
Group C: Sham operated rats, treated with the vitamin D analogue over 2 weeks, beginning at day 1 after surgery (n=12)
a) Cystometry (˜18 hours after last administration of the drug/vehicle, 12 hours after removal of the obstructing ligature) under conscious conditions.
The bladder and urethrovesical junction were exposed through a lower abdominal midline incision. A 0.9 mm metal rod was placed alongside the proximal urethra and a 3-0 silk ligature was tied tightly around the urethra and the rod, which was consequently removed. Sham surgery was performed accordingly, without placing the ligature. After 13 days the ligature was removed and a catheter was inserted into the bladder dome and tunneled subcutaneously.
The following morning after insertion of the catheter, the cystometric investigation was performed without any anesthesia or restraint in a metabolic cage. The amount of voided urine was measured by means of a fluid collector, connected to a force displacement transducer. The bladder was continuously filled with saline at room temperature. The catheter was also connected to a pressure transducer. After a stabilization period of 30-60 minutes, when reproducible voiding patterns are achieved, the following parameters were recorded over a period of 30 min: Basal bladder pressure, micturition pressure, threshold pressure, micturition interval and volume, and non-voiding contractions. The amount of residual urine was investigated manually 3 times, at the end of the cystometry. Bladder capacity was calculated based on the measured values.
The validated bladder outlet obstruction rat model described above was used to test the ability of vitamin D3 analogues to control and treat bladder dysfunction. The objective was to evaluate whether a vitamin D3 analogue (1-alpha-fluoro-25-hydroxy-16,23e-diene-26,27-bishomo-20-epi-cholecalciferol-Compound “A”) at the dose of 150 ug/kg/daily can prevent bladder hypertrophy and bladder dysfunction such as bladder overactivity.
In this model a ligature was surgically placed around the outlet of the catheterized bladder, so that when the catheter was removed, the bladder experienced increased urethral resistance. The rats underwent continuous cystometry to evaluate bladder function. In addition the contractile properties of isolated bladder preparation in response to nerve stimulation and exogenous stimuli in vitro were investigated under electrical field stimulation (EFS).

For the molecule `C=C1/C(=C\C=C2/CCC[C@]3(C)C([C@@H](C)C/C=C/C(O)(CC)CC)=CC[C@@H]23)C[C@@H](O)C[C@@H]1F` [Compound A, 1-alpha-fluoro-25-hydroxy-16,23E-diene-26,27-bishomo-20-epi-cholecalciferol], the bladder capacity entry in assay [1] (FIG. 23) is “increase”. The non-voiding bladder contractions result in assay [1] (FIG. 24) is “decrease”. Further, the “response to carbachol of bladder strips” value in the assay with bladder strips is listed as “beneficial effect”. The “response to EFS of bladder strips” value in the assay with bladder strips (electrical field stimulation, FIG. 21) is on record as “beneficial effect”. The “K response of bladder strips” value with bladder strips (strips from treated rats, high K+ (124 mM)) was “beneficial effect”. Besides, in the assay with BOO rats (versus vehicle), the “spontaneous non-voiding contraction amplitude” value is reported as “significant differences versus vehicle” and the “spontaneous non-voiding contraction frequency” value is “significant differences versus vehicle”. In the assay on BOO rats (versus vehicle, FIG. 19), the micturition pressure entry is listed as “significant differences versus vehicle”. Besides, in the assay on BOO rats (FIG. 16), the bladder weight entry is “slight decrease”. In addition, the residual urine entry with BOO rats (FIG. 20) was “absent”.
